Results reported in PubChem BioAssay AID248 (DTP/NCI, 2004).
“And” between values parts separate entries of the source, which are not always exact repeats. Equal entries are not always repeated. Inconclusive results and toxic doses are left out.

Test system: L1210 leukemia ip in BDF1 mice, survival T/C
Assay: NCI In Vivo Anticancer Drug Screen. Data for tumor model L1210 Leukemia (intraperitoneal) in B6D2F1 (BDF1) mice
Details: endpoint: mean survival time, higher = longer survival
How it was run: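 Antitumor effect is assessed in tumor-bearing animals. Survival in the compound arm is compared with a vehicle-dosed control arm and expressed as their quotient.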

[1] = dose: 100.0 mg/kg/injection, schedule: Q04DX002 (ip), vehicle: Klucel (hydroxypropylcellulose) (HPC)
[2] = dose: 100.0 mg/kg/injection, schedule: Q04DX002 (ip), vehicle: saline with Tween-80
[3] = dose: 200.0 mg/kg/injection, schedule: Q04DX002 (ip), vehicle: saline with Tween-80
[4] = dose: 400.0 mg/kg/injection, schedule: Q04DX002 (ip), vehicle: saline with Tween-80
[5] = dose: 50.0 mg/kg/injection, schedule: Q01DX001 (ip), vehicle: saline
[6] = dose: 50.0 mg/kg/injection, schedule: Q04DX003 (ip), vehicle: saline
[7] = dose: 100.0 mg/kg/injection, schedule: Q01DX001 (ip), vehicle: saline
[8] = dose: 100.0 mg/kg/injection, schedule: Q04DX003 (ip), vehicle: saline
[9] = dose: 200.0 mg/kg/injection, schedule: Q01DX001 (ip), vehicle: saline
[10] = dose: 200.0 mg/kg/injection, schedule: Q04DX003 (ip), vehicle: saline
[11] = dose: 75.0 mg/kg/injection, schedule: Q01DX001 (ip), vehicle: carboxymethylcellulose (CMC)
[12] = dose: 50.0 mg/kg/injection, schedule: Q01DX009 (ip), vehicle: saline with Tween-80
[13] = dose: 100.0 mg/kg/injection, schedule: Q01DX009 (ip), vehicle: saline with Tween-80
[14] = dose: 200.0 mg/kg/injection, schedule: Q01DX009 (ip), vehicle: saline with Tween-80
[15] = dose: 12.5 mg/kg/injection, schedule: Q04DX003 (ip), vehicle: saline with Tween-80
[16] = dose: 25.0 mg/kg/injection, schedule: Q04DX003 (ip), vehicle: saline with Tween-80
[17] = dose: 400.0 mg/kg/injection, schedule: Q01DX009 (ip), vehicle: saline with Tween-80
[18] = dose: 400.0 mg/kg/injection, schedule: Q01DX001 (ip), vehicle: saline
[19] = dose: 100.0 mg/kg/injection, schedule: Q04DX003 (ip), vehicle: Klucel (hydroxypropylcellulose) (HPC)
[20] = dose: 200.0 mg/kg/injection, schedule: Q04DX003 (ip), vehicle: Klucel (hydroxypropylcellulose) (HPC)
[21] = dose: 400.0 mg/kg/injection, schedule: Q04DX003 (ip), vehicle: Klucel (hydroxypropylcellulose) (HPC)

For CC/C=N\N=C(N)N, the T/C (dose: 15.0 mg/kg/injection, schedule: Q01DX Z (ip), vehicle: saline) was 101 % of control, the T/C (dose: 30.0 mg/kg/injection, schedule: Q01DX Z (ip), vehicle: saline) was 106 % of control and the T/C (dose: 60.0 mg/kg/injection, schedule: Q01DX Z (ip), vehicle: saline) was 100 % of control. For the same compound, the T/C (dose: 120.0 mg/kg/injection, schedule: Q01DX010 (oral), vehicle: saline) was 94 % of control, the T/C (dose: 120.0 mg/kg/injection, schedule: Q01DX Z (ip), vehicle: saline) was 100 % of control and the T/C (dose: 240.0 mg/kg/injection, schedule: Q01DX010 (oral), vehicle: saline) was 98 % of control. The T/C (dose: 240.0 mg/kg/injection, schedule: Q01DX Z (ip), vehicle: saline) was 95 % of control.

In the case of O=C(O)C(Br)CO (centres undefined) (tested in a mixture with another compound), the T/C (dose: 100.0 mg/kg/injection, schedule: Q01DX001 (ip), vehicle: acetone) is reported as 93 % of control and the T/C (dose: 200.0 mg/kg/injection, schedule: Q01DX001 (ip), vehicle: acetone) is reported as 95 % of control.

For O=[N+]([O-])c1cccc(Cl)c1F, the T/C [1] was 101 % of control and the T/C (dose: 200.0 mg/kg/injection, schedule: Q04DX002 (ip), vehicle: Klucel (hydroxypropylcellulose) (HPC)) was 96 % of control.

For CC(C)OC(=O)C1OC1c1ccccc1 (centres undefined), the T/C [2] was 109 % of control, the T/C [3] was 102 % of control and the T/C [4] was 109 % of control.

CCCC(=O)N1CCC(C)CC1 was tested, and the T/C [5] was 103 % of control, the T/C (dose: 50.0 mg/kg/injection, schedule: Q01DX009 (ip), vehicle: saline) was 97 % of control and 98 % of control and the T/C (dose: 50.0 mg/kg/injection, schedule: Q04DX002 (ip), vehicle: saline) was 112 % of control. The T/C [6] was 100 % of control, the T/C [7] was 100 % of control and the T/C (dose: 100.0 mg/kg/injection, schedule: Q01DX009 (ip), vehicle: saline) was 98 % of control. For the same compound, the T/C (dose: 100.0 mg/kg/injection, schedule: Q04DX002 (ip), vehicle: saline) was 102 % of control, the T/C [8] was 107 % of control and the T/C [9] was 103 % of control. The T/C (dose: 200.0 mg/kg/injection, schedule: Q01DX009 (ip), vehicle: saline) was 94 % of control and 113 % of control, the T/C (dose: 200.0 mg/kg/injection, schedule: Q04DX002 (ip), vehicle: saline) was 102 % of control and the T/C [10] was 95 % of control.

In the case of CC1(C)S[C@@H]2[C@H](NC=O)C(=O)N2[C@H]1C(=O)OCc1ccccc1, the T/C [11] is reported as 90 % of control and the T/C (dose: 150.0 mg/kg/injection, schedule: Q01DX001 (ip), vehicle: carboxymethylcellulose (CMC)) is reported as 86 % of control.

CCCCOC1=CC2C(=CCC3C2(C)C(=O)CC2(C)C(C(C)(O)C(=O)/C=C/C(C)(C)O)C(O)CC32C)C(C)(C)C1=O (centres undefined) was tested, and the T/C (dose: 50.0 mg/kg/injection, schedule: Q04DX002 (ip), vehicle: saline with Tween-80) was 97 % of control, the T/C [2] was 97 % of control and the T/C [3] was 101 % of control.

In the case of CCN(CC)CCNC(=O)c1c2nc3c(C(=O)NCCN(CC)CC)ccc(C)c3oc-2c(C)c(=O)c1N, the T/C (dose: 25.0 mg/kg/injection, schedule: Q04DX002 (ip), vehicle: Klucel (hydroxypropylcellulose) (HPC)) is reported as 101 % of control, the T/C (dose: 50.0 mg/kg/injection, schedule: Q04DX002 (ip), vehicle: Klucel (hydroxypropylcellulose) (HPC)) is reported as 97 % of control and the T/C [11] is reported as 105 % of control. For the same compound, the T/C [1] was 94 % of control.

In the case of CC1CSCC(C)O1 (centres undefined), the T/C [12] is reported as 95 % of control, the T/C [13] is reported as 284 % of control and the T/C [14] is reported as 95 % of control.

For O=C(CCCC(=O)N/N=C/c1ccc(O)c(O)c1)N/N=C\c1ccc(O)c(O)c1, the T/C (dose: 50.0 mg/kg/injection, schedule: Q01DX001 (ip), vehicle: other) was 104 % of control, the T/C (dose: 100.0 mg/kg/injection, schedule: Q01DX001 (ip), vehicle: other) was 93 % of control and the T/C (dose: 200.0 mg/kg/injection, schedule: Q01DX001 (ip), vehicle: other) was 98 % of control. The T/C (dose: 400.0 mg/kg/injection, schedule: Q01DX001 (ip), vehicle: other) was 91 % of control.

For CC(=O)Nc1nc(-c2ccccc2)c(CCC=O)c(=O)[nH]1, the T/C (dose: 50.0 mg/kg/injection, schedule: Q01DX001 (ip), vehicle: Klucel (hydroxypropylcellulose) (HPC)) was 93 % of control, the T/C (dose: 100.0 mg/kg/injection, schedule: Q01DX001 (ip), vehicle: Klucel (hydroxypropylcellulose) (HPC)) was 96 % of control and the T/C (dose: 200.0 mg/kg/injection, schedule: Q01DX001 (ip), vehicle: Klucel (hydroxypropylcellulose) (HPC)) was 104 % of control.

For NC(=O)Cc1csc2ccccc12, the T/C [7] was 101 % of control and the T/C [9] was 106 % of control.

O=C(/C(=C\c1ccccc1)CBr)c1ccc(Br)cc1 was tested, and the T/C (dose: 3.12 mg/kg/injection, schedule: Q01DX009 (ip), vehicle: saline) was 100 % of control, the T/C (dose: 6.25 mg/kg/injection, schedule: Q01DX009 (ip), vehicle: saline) was 100 % of control and the T/C (dose: 12.5 mg/kg/injection, schedule: Q01DX009 (ip), vehicle: saline) was 94 % of control and 89 % of control. The T/C [15] was 96 % of control, the T/C [16] was 93 % of control and the T/C (dose: 50.0 mg/kg/injection, schedule: Q04DX003 (ip), vehicle: saline with Tween-80) was 94 % of control.

In the case of N#Cc1cc2c3c(c1)CCCN3CCC2, the T/C [12] is reported as 91 % of control, the T/C [13] is reported as 93 % of control and the T/C [14] is reported as 90 % of control. The T/C [17] was 96 % of control.

CCOC(=O)C(C(=O)OCC)C(C)c1ccc([N+](=O)[O-])cc1 (centres undefined) was tested, and the T/C [13] was 106 % of control, the T/C [2] was 100 % of control and the T/C [14] was 106 % of control. The T/C [3] was 103 % of control, the T/C [17] was 113 % of control and the T/C [4] was 92 % of control.

In the case of C1CCN(CCCCN2CCCCC2)CC1, the T/C [7] is reported as 96 % of control, the T/C [9] is reported as 104 % of control and the T/C [18] is reported as 108 % of control.

In the case of Nc1ccc(/C=C/c2ccc(N)cc2)cc1, the T/C [19] is reported as 97 % of control, the T/C [20] is reported as 94 % of control and the T/C [21] is reported as 94 % of control.

With CN(C)CCCN=Cc1cc(Cl)ccc1O.CN(C)CCCN=Cc1cc(Cl)ccc1O.[Ni+2] the T/C (dose: 6.25 mg/kg/injection, schedule: Q04DX003 (ip), vehicle: saline with Tween-80) was 92 % of control, the T/C [15] was 105 % of control and the T/C [16] was 97 % of control.

In the case of CC(=O)c1ccncc1, the T/C [5] is reported as 94 % of control, the T/C [7] is reported as 89 % of control and the T/C [9] is reported as 94 % of control. The T/C [18] was 94 % of control.

O=C(O)C(Cc1ccccc1)C(=O)O.[NH2-].[NH2-].[Pt+2] was tested, and the T/C (dose: 25.0 mg/kg/injection, schedule: Q04DX003 (ip), vehicle: Klucel (hydroxypropylcellulose) (HPC)) was 102 % of control, the T/C (dose: 50.0 mg/kg/injection, schedule: Q04DX003 (ip), vehicle: Klucel (hydroxypropylcellulose) (HPC)) was 98 % of control and the T/C [19] was 119 % of control. The T/C [20] was 104 % of control.

COc1cc(C=O)ccc1OC(=O)Nc1cccc(Cl)c1C was tested, and the T/C (dose: 100.0 mg/kg/injection, schedule: Q01DX009 (ip), vehicle: Klucel (hydroxypropylcellulose) (HPC)) was 97 % of control, the T/C (dose: 200.0 mg/kg/injection, schedule: Q01DX009 (ip), vehicle: Klucel (hydroxypropylcellulose) (HPC)) was 97 % of control and the T/C (dose: 400.0 mg/kg/injection, schedule: Q01DX009 (ip), vehicle: Klucel (hydroxypropylcellulose) (HPC)) was 103 % of control.

In the case of COC(=O)c1nc(Cl)nc(SC)c1Cl, the T/C [19] is reported as 96 % of control, the T/C [20] is reported as 110 % of control and the T/C [21] is reported as 96 % of control.

For CCOC(=O)CN1N=C([P+](c2ccccc2)(c2ccccc2)c2ccccc2)CC1(c1ccccc1)c1ccccc1, the T/C (dose: 10.0 mg/kg/injection, schedule: Q01DX001 (ip), vehicle: saline) was 95 % of control, the T/C (dose: 20.0 mg/kg/injection, schedule: Q01DX001 (ip), vehicle: saline) was 96 % of control and the T/C (dose: 40.0 mg/kg/injection, schedule: Q01DX001 (ip), vehicle: saline) was 86 % of control.

COCCCNc1ncnc2[nH]ncc12 was tested, and the T/C (dose: 15.0 mg/kg/injection, schedule: Q01DX015 (ip), vehicle: saline) was 95 % of control, the T/C (dose: 30.0 mg/kg/injection, schedule: Q01DX015 (ip), vehicle: saline) was 101 % of control and the T/C [6] was 96 % of control. The T/C (dose: 60.0 mg/kg/injection, schedule: Q01DX015 (ip), vehicle: saline) was 97 % of control, the T/C [7] was 106 % of control and the T/C [8] was 98 % of control. For the same compound, the T/C (dose: 120.0 mg/kg/injection, schedule: Q01DX015 (ip), vehicle: saline) was 110 % of control, the T/C [9] was 106 % of control and the T/C [10] was 100 % of control. For the same compound, the T/C [18] was 116 % of control.
